Experimental data: ChEMBL document CHEMBL1649320, “Development of daptomycin nonsusceptibility with heterogeneous vancomycin-intermediate resistance and oxacillin susceptibility in methicillin-resistant Staphylococcus aureus during high-dose daptomycin treatment” (2010)
Converted amounts (≈) assume the structure as drawn.

What was measured:
Type in all cases: functional
Staphylococcus aureus [1] = experiment: Antimicrobial activity against methicillin-resistant Staphylococcus aureus CGK1 by Etest method
Staphylococcus aureus [2] = experiment: Antimicrobial activity against methicillin-resistant Staphylococcus aureus CGK2 by Etest method
Staphylococcus aureus [3] = experiment: Antimicrobial activity against methicillin-resistant Staphylococcus aureus CGK3 by Etest method
Staphylococcus aureus [4] = experiment: Antimicrobial activity against methicillin-resistant Staphylococcus aureus CGK4 by Etest method
Staphylococcus aureus [5] = experiment: Antimicrobial activity against methicillin-resistant Staphylococcus aureus CGK5 by Etest method
Staphylococcus aureus [6] = experiment: Antimicrobial activity against methicillin-resistant Staphylococcus aureus CGK6 by Etest method
Staphylococcus aureus [7] = experiment: Antimicrobial activity against methicillin-resistant Staphylococcus aureus CGK7 by Etest method
Staphylococcus aureus [8] = experiment: Antimicrobial activity against methicillin-resistant Staphylococcus aureus CGK8 by Etest method

Row | SMILES | MIC (Staphylococcus aureus [1]) [µg/mL] | MIC (Staphylococcus aureus [2]) [µg/mL] | MIC (Staphylococcus aureus [3]) [µg/mL] | MIC (Staphylococcus aureus [4]) [µg/mL] | MIC (Staphylococcus aureus [5]) [µg/mL] | MIC (Staphylococcus aureus [6]) [µg/mL] | MIC (Staphylococcus aureus [7]) [µg/mL] | MIC (Staphylococcus aureus [8]) [µg/mL]
1 | CC(=O)N[C@@H]1[C@H](Oc2c3cc4cc2Oc2ccc(cc2Cl)[C@@H](O[C@@H]2O[C@@H](CO)[C@@H](O)[C@H](O)[C@@H]2NC(C)=O)[C@@H]2NC(=O)[C@H](NC(=O)[C@@H]4NC(=O)[C@H]4NC(=O)[C@@H](Cc5ccc(c(Cl)c5)O3)NC(=O)[C@H](N)c3ccc(O)c(c3)Oc3cc(O)cc4c3)c3ccc(O)c(c3)-c3c(O[C@H]4O[C@H](CO)[C@@H](O)[C@@H](O)[C@@H]4O)cc(O)cc3[C@@H](C(=O)O)NC2=O)O[C@@H](CO)[C@@H](O)[C@@H]1O | 1 (≈ 0.566 µM) | 1.5 (≈ 0.849 µM) | 1.5 (≈ 0.849 µM) | 1 (≈ 0.566 µM) | 2 (≈ 1.13 µM) | 2 (≈ 1.13 µM) | 3 (≈ 1.7 µM) | 2 (≈ 1.13 µM)
2 | CCCCCCCCCC(=O)N[C@@H](Cc1c[nH]c2ccccc12)C(=O)N[C@H](CC(N)=O)C(=O)N[C@@H](CC(=O)O)C(=O)N[C@@H]1C(=O)NCC(=O)N[C@@H](CCCN)C(=O)N[C@@H](CC(=O)O)C(=O)N[C@H](C)C(=O)N[C@@H](CC(=O)O)C(=O)NCC(=O)N[C@H](CO)C(=O)N[C@@H]([C@H](C)CC(=O)O)C(=O)N[C@@H](CC(=O)c2ccccc2N)C(=O)O[C@@H]1C | 0.5 (≈ 0.309 µM) | 0.75 (≈ 0.463 µM) | 0.75 (≈ 0.463 µM) | 0.38 (≈ 0.234 µM) | 0.75 (≈ 0.463 µM) | 4 (≈ 2.47 µM) | 4 (≈ 2.47 µM) | 4 (≈ 2.47 µM)
3 | CC(=O)NC[C@H]1CN(c2ccc(N3CCOCC3)c(F)c2)C(=O)O1 [LINEZOLID] | – | – | – | – | – | 1 (≈ 2.96 µM) | – | 1.5 (≈ 4.45 µM)
4 | Cc1onc(-c2ccccc2)c1C(=O)N[C@@H]1C(=O)N2[C@@H]1SC(C)(C)[C@@H]2C(=O)O [OXACILLIN] | 32 (≈ 79.7 µM) | > 256 | > 256 | 16 (≈ 39.9 µM) | > 256 | 1.5 (≈ 3.74 µM) | 3 (≈ 7.47 µM) | 1 (≈ 2.49 µM)
5 | CN[C@H](CC(C)C)C(=O)N[C@H]1C(=O)N[C@@H](CC(N)=O)C(=O)N[C@H]2C(=O)N[C@H]3C(=O)N[C@H](C(=O)N[C@H](C(=O)O)c4cc(O)cc(O)c4-c4cc3ccc4O)[C@H](O)c3ccc(c(Cl)c3)Oc3cc2cc(c3O[C@@H]2O[C@H](CO)[C@@H](O)[C@H](O)[C@H]2O[C@H]2C[C@](C)(N)[C@H](O)[C@H](C)O2)Oc2ccc(cc2Cl)[C@H]1O [VANCOMYCIN] | 1.5 (≈ 1.04 µM) | 1.5 (≈ 1.04 µM) | – | 1.5 (≈ 1.04 µM) | – | – | 3 (≈ 2.07 µM) | –
